Assay results as given in paper doi:10.1101/2020.04.13.040287v1 (biorxiv, 2020).
Like-named read-outs stand apart in the source and are kept apart here.

What was measured:
in vitro [1] = settings: rat, plasma
in vitro [2] = settings: dog
in vitro [3] = settings: human, plasma
in vitro [4] = settings: dog, plasma
in vitro [5] = settings: human
DEN2 [6] = assay: microbe, parasite or virus in culture; settings: Dengue virus, THP-1, read-out: THP-1 DEN2 assay (EC50)
DEN2 [7] = assay: microbe, parasite or virus in culture; settings: Dengue virus, K562, read-out: K562 DEN2 assay (EC50)
DEN2 [8] = assay: microbe, parasite or virus in culture; settings: Dengue virus, HEK-293T, read-out: 293T DEN2 assay (EC50)
in vitro [9] = settings: dog, intestinal s9
in vitro [10] = settings: human, intestinal s9
[11] = liver s9, Liver S9 T1/2 (min) dog
[12] = liver s9, Liver S9 T1/2 (min) human

Compound | half-life (in vitro [1]; Plasma T1/2 (min) rat) | half-life (in vitro [2]; [11]) | half-life (in vitro [5]; [12]) | further results
CCOc1nc(N)nc2c1ncn2C1OC2COP(=O)(NC(C)C(=O)OC(C)C)OC2C1(C)F (centres unmarked) [compound 12, 12] | < 0.0833 h | 0.933 h |  | 
COC(=O)C(C)NP1(=O)OCC2OC(n3cnc4c(OC(C)C)nc(N)nc43)C(C)(F)C2O1 (centres unmarked) [compound 19, 19] | < 0.0833 h |  |  | half-life (in vitro [3]): 1.88 h; half-life (in vitro [4]): > 2 h
CCOC(=O)C(NP1(=O)OCC2OC(n3cnc4c(OCC)nc(N)nc43)C(C)(F)C2O1)C(C)C (centres unmarked) [compound 20, 20] | 1.1 h | 1.02 h | 1.37 h | 
CCOC(=O)C(C)NP1(=O)OCC2OC(n3cnc4c(OCC)nc(N)nc43)C(C)(F)C2O1 (centres unmarked) [compound 17, 17] |  |  |  | EC50 (DEN2 [6]): 460 ± 200 nM; EC50 (DEN2 [7]): 2790 ± 220 nM; EC50 (DEN2 [8]): 3400 nM
CCOc1nc(N)nc2c1ncn2[C@@H]1O[C@@H]2COP(=O)(OC(C)C)O[C@H]2[C@@]1(C)F (some centres unmarked) [compound 4, PSI-352938] |  |  | > 2 h | 
CCOc1nc(N)nc2c1ncn2C1OC2COP(=O)(NCC(=O)OC(C)C)OC2C1(C)F (centres unmarked) [compound 16, 16] | < 0.0833 h | 1.52 h | 0.967 h | 
COc1nc(N)nc2c1ncn2[C@@H]1O[C@H](COP(=O)(N[C@@H](C)C(=O)OC(C)C)Oc2ccccc2)[C@@H](O)[C@@]1(C)F (some centres unmarked) [compound 5, PSI-353661] |  |  |  | half-life (in vitro [9]): 1.2 h; half-life (in vitro [5]; liver s9): 0.3 h; half-life (in vitro [10]): > 2 h; half-life (in vitro [1]): < 0.0833 h; half-life (in vitro [2]; liver s9): 0.85 h
